This is an account of results in patent publication US10329259B2, “Pyrazole derivatives and their use as cannabinoid receptor mediators” (The United States of America, as represented by the …, priority 2014, dated 2019).

By Ki is commonly meant a measure of affinity in units of concentration, obtained from inhibition or displacement.

Like-named read-outs stand apart in the source and are kept apart here.

This assay deals with T1, mouse CB1 receptor (Mus musculus, UniProt P47746).
T1 construct: radioligand displacement assay using mouse brain plasma membranes; from tissue; host or cells: mouse brain plasma membranes
The assay is described as follows: radioligand displacement assay using mouse brain plasma membranes and 3H-CP55540. The assay is classed as binding. An excerpt:
In addition, the compounds disclosed herein may be less lipophilic.
In general terms: In a radioligand displacement assay an active substance lowers the binding of a labelled ligand.

T1 sequence (P47746 whole entry): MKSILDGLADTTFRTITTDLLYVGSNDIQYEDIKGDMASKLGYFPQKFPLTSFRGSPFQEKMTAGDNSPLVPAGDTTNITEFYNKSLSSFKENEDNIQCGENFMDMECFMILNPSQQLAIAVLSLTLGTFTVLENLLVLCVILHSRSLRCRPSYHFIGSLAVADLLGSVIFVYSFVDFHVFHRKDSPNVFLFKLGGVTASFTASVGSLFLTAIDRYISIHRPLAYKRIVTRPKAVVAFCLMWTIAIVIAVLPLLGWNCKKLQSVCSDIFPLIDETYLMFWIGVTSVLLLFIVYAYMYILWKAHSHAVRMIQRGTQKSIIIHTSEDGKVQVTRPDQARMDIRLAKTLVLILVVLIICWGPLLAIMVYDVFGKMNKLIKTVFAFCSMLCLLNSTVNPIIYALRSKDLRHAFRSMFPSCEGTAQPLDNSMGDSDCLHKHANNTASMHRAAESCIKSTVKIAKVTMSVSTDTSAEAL

`CC(=O)NC(=N)NC(=NS(=O)(=O)N1CCC(F)(F)CC1)N1CC(c2ccccc2)C(c2ccc(Cl)cc2)=N1` (stereo not drawn) [MRI-1950]: where the note is “mouse brain plasma membranes, 3H-CP55540 as labeled ligand, read-out: Ki CB1”, the inhibitory constant (Ki) worked out at 1.2 nM.

In the case of `CC(C)(C)/C(N)=N/C(=N/S(=O)(=O)N1CCC(F)(F)CC1)N1CC(c2ccccc2)C(c2ccc(Cl)cc2)=N1` (stereo not drawn) [Table 1 Serial # 10], affinity was put at a Ki of 21 nM.

`C/C(N)=N/C(=N/S(=O)(=O)N1CCC(C(F)(F)F)CC1)N1CC(c2ccccc2)C(c2ccc(Cl)cc2)=N1` (stereo not drawn) [Table 1 Serial # 13]: the Ki was 3 nM.
